These results are taken from paper PMC10649417, “Inhibitory Activity of 4-Benzylidene Oxazolones Derivatives of Cinnamic Acid on Human Acetylcholinesterase and Cognitive Improvements in a Mouse Model” (Molecules, 2023).

Assay [1] relates to male ICR mice. Kind of assay: Novel Object Recognition (NOR) test, scopolamine-induced amnesia. The class given is in vivo, mouse. Particulars: for effect on episodic short-term memory (DI vs amnesic group): donepezil 1 mg/kg, oxazolone (1) 5, 10, 25 and 100 μmol/kg, i.p.; for Discrimination Index (DI): scopolamine-treated mice, n = 5, mean ± SE. As for the experimental part: (§1) The experimental protocols were submitted and approved by the Bioethics Committee of the Faculty of Medicine and Psychology, Autonomous University of Baja California University, Tijuana, México (Record No. 666/2021-2). To perform the in vivo cognitive test experiments, male ICR mice eight weeks of age were used. The animals were housed with access to water and food under a 12 h light and dark cycle, with controlled temperature and humidity.
(§2) To carry out the cognition experiments, we used the methods previously described in detail by Arunrungvichian K., et al., 2015, in which they produced pharmacological amnesia using scopolamine in a mouse model. […] All compounds were administered by intraperitoneal injection in a volume of 5 mL/kg. Saline solution was used for the vehicle group (SH).
We employed the Novel Object Recognition Test (NOR) to assess recognition memory, a valuable tool for evaluating cognitive impairment in rodents and testing the impact of new drugs on cognition. This test involves an open-field arena containing two distinct types of objects, each with unique colors and shapes for easy discrimination. The basis of this test lies in rodents’ natural inclination to spend more time exploring a new object compared to a familiar one, leading to the calculation of a Discrimination Index (DI).
The testing procedure unfolded as follows: On the first day, the mice were allowed to freely explore the open-field apparatus for 5 min to become accustomed to the environment. On the second day, oxazolone 1, DZ, and SH were administered 1 h prior, while SC was given 30 min before the acquisition trial. During this trial, the mice were introduced to the apparatus with two identical objects. After spending 10 min in their cages, one of the objects was replaced with a new one, and the mice were granted 5 min to explore these objects during the retention trial. We meticulously recorded the time the mice spent exploring each object, defined as when their noses approached within 3 cm or when they made contact with the objects. The DI was calculated as (TN – TF)/(TN + TF), with TN representing the exploration time of the new object and TF indicating the exploration time of the familiar object.

Assay [2] concerns male ICR mice. Kind of assay: Spatial working memory, modified Y-maze, scopolamine-induced amnesia. The class given is in vivo, mouse. The following applies: for Percentage of unfamiliar arm exploration: n = 5. The protocol:
as §1, §2
We use the maze used in the spontaneous alternation tests except for the use of a partition to close one of three arms. Here, mice, throughout multiple arm entries, should tend to enter a less recently visited arm or an unfamiliar arm of the maze. The mice were injected with compound 1, SH, DZ, and scopolamine (1 h and 30 min) before starting experiments. Each mouse was placed at the end of one arm and allowed to move freely for 5 min to get familiar with the two open arms. All arms were opened after 30 min of resting to allow entering in all three arms. An entry was counted if mice accessed an arm at least 10 cm. The percentage of unfamiliar arm exploration was calculated as Equation (2):(2) Percentage of unfamiliar arm exploration=number of unfamiliar arm entry/number of all arms entry×100

Assay [3] concerns male ICR mice. Kind of assay: Y-maze spontaneous alternation test. The class given is in vivo, mouse. The following applies: 1 h before, 8 min in Y-maze, n = 5, mean ± SE. The protocol: as §1, §2
Assay [4] has as its target T1, human acetylcholinesterase (hAChE) (Homo sapiens, UniProt P22303).
T1 construct: purchased Sigma Aldrich; host or cells: HEK 93 cells (so in the source)
Kind of assay: Estimation of IC50 values on hAChE (Ellman, 96-microwell plates). The class given is biochemical. The following applies: room temperature, 0.1 M PBS pH 7.4; n = 3. As for the experimental part: (§3) Recombinant hAChE expressed in HEK 93 cells, a lyophilized powder (Sigma Aldrich, Mexico), was dissolved in TBSA/sodium azide 0.02% and then was stored in aliquots at −20 °C. Each aliquot was diluted as required in a solution of PBS 0.1M pH 7.4/BSA 0.01% on the day of the experiment.
The concentrations of test compounds that inhibited the hydrolysis of substrates by 50% (IC50) were determined by monitoring the effect of various concentrations of oxazolones in the assays on the inhibition values. To study the potency, the oxazolones with an inhibition greater than 50% were selected, taken from the screening test results at 300 μM. All the inhibition studies were performed at room temperature in 96-microwell plates using Multiskan FC 5111900 (Lab Systems, CA, USA). The DTNB was used for the measurement of hAChE activity. In total, 174 μL in 0.1 M PBS pH 7.4/0.01% BSA, containing 300 μM DTNB final concentration, 2 μL of test-compound solution, and 2 μL of hAChE solution (0.2 μM) were mixed. The reaction was then initiated by adding 2 μL acetylthiocholine (10 mM), and the plate was read immediately. The formation of yellow 2-nitro-5-tiobenzoico acid due to the reaction of DTNB with thiocholine monitored the enzymatic hydrolysis of acetylthiocholine. Measures were at a wavelength of 412 nm at room temperature after 1 min. The IC50 values were then calculated using the GraphPad Prism 6.0 software (San Diego, CA, USA). All data are shown as means of n = 3.

The target in assay [5] is T1, human acetylcholinesterase (hAChE). Kind of assay: Kinetic determinations of reversible hAChE inhibition (Ellman assay). Type of assay: biochemical. Particulars: for Ki: room temperature, 0.1 M PBS pH 7.4, n = 3, read-out: Inhibition Constant (Ki); for Parameter α: α of Vmax and Km referred to control AChE activity, mixed model inhibition; for decrease in inhibition potency compared to (1): from Ki values. The protocol:
as §3
Reversible inhibition assays from all hAChE were measured using a spectrophotometric Ellman assay at room temperature in 0.1 M PBS pH 7.4, containing 0.01% BSA, containing DTNB 300 µM as a chromogen. The equilibrium dissociation constant (Ki) of the hAChE–oxazolone conjugate was determined using different substrate concentrations (s) ranging from 0.05 to 0.200 mM, and at least four different concentrations of the oxazolones (i) were applied at a given substrate concentration in order to obtain hAChE inhibition between 20% and 80% to establish the affinity for each hAChE–oxazolone conjugate combination. The enzyme activity (ν) was plotted versus the substrate concentration [S] analyzed by non-linear regression analysis (Michaelis–Menten plot); data were transformed into a double reciprocal Lineweaver–Burk plot. Plots 1/ν versus 1/[S] were generated by plotting the slope versus the oxazolone concentration and the ordinate versus the oxazolone concentration of the primary plot. The processing of experimental data to define the oxazolones affinity was performed by a linear regression analysis where the y-intercept determines the enzyme-inhibitor dissociation constants (Ki), while the x-intercept determines the enzyme-substrate dissociation constant (Ks). The equation was used assuming that the substrate, due to low substrate concentrations used in experiments, binds only to the catalytic site, while the inhibitor can bind to both sites, catalytic and peripheral. To determine the mechanism of inhibition, we used the dose-response curves fitted using the Mixed Model Inhibition by the constants Vmax and Km calculated from Michaelis–Menten kinetics that includes competitive, uncompetitive, and non-competitive inhibition as special cases. The GraphPad Prims 6.0 software, San Diego, CA, USA was used to calculate the kinetics. All data are shown as means of n = 3.
For orientation: In Ellman's method for cholinesterases, released thiocholine reacts with DTNB.

Assay [6] has the same target. Kind of assay: hAChE inhibitory screening (Ellman method). The class given is biochemical. The following applies: n = 3. The protocol:
as §3
The spectrophotometric method of Ellman was used to evaluate the inhibition of hAChE. The assay was carried out by double beam UV-Vis 6705 Janway spectrophotometer at room temperature, using optical polystyrene cuvettes of 1.0 cm path length (10 × 10 × 45 mm, 340–800 nm optical transparency). Each test compound was dissolved in ethanol. […] Aliquots of 970 μL of PBS 0.1 M pH 7.4/BSA 0.01% containing DTNB (300 μM) and 10 μL of hAChE (0.2 μM) were placed in the polystyrene cuvette. An amount of 10 μL of a stock solution to obtain a final concentration of 100 or 300 μM of the tested compound was added. In total, 10 μL of an aqueous solution of acetylthiocoline 10 mM was added to start the reaction. The absorbance of the sample by the generation of the yellow 5-nitro-2-tio-benzoic anion was recorded at 412 nm at room temperature after 1 min. As a control, an identical enzyme solution without the inhibitor was processed following the same protocol to determine 100% of enzyme activity. […] Each experiment was repeated at least in triplicate. The capacity of each compound to inhibit hAChE was expressed as percent inhibition calculated using Equation (1):(1) Inhibition(%)=Ac−Ai×100/Ac where Ac and Ai represent the change in the absorbance in the […], respectively.

T1 sequence (P22303 32-614): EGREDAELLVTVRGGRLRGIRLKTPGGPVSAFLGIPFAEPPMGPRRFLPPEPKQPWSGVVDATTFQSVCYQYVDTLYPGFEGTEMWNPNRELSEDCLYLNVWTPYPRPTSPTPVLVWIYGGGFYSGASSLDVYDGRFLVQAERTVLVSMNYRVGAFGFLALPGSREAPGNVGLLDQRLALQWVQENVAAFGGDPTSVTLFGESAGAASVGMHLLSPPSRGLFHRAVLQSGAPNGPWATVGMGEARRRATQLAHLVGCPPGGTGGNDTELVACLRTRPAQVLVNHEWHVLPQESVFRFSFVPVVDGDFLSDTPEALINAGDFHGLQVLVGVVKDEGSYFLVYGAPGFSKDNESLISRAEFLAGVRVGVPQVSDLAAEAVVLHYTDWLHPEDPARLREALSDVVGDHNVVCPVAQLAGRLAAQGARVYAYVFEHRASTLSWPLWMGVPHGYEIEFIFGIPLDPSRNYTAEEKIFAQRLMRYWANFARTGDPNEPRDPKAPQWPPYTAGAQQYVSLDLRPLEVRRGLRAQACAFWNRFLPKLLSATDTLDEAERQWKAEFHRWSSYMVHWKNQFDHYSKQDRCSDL

With `COc1cc2c(cc1OC)C(=O)C(CC1CCN(Cc3ccccc3)CC1)C2` (centres unmarked) [Donepezil, donepezil, reference compound], in the assay on male ICR mice [1], the “effect on episodic short-term memory (DI vs amnesic group)” value is “substantially improved episodic short-term memory”. For the same compound, the “effect on cognitive decline induced by scopolamine (novel arm exploration)” value with male ICR mice [2] (1 mg/kg i.p., p < 0.001 vs scopolamine group) is given as “notably reversed”.
In the case of `O=C1OC(/C=C/c2ccccc2)=NC/1=C\c1ccccc1` [Oxazolone 1, 4-((Z)-benzylidene)-2-((E)-styryl)oxazol-5(4H)-one], the entries for the “Discrimination Index (DI)” value with male ICR mice [1] (10 μmol/kg i.p.) and in the assay on male ICR mice [1] (100 μmol/kg i.p.) were 0.317 ± 0.051 and 0.360 ± 0.056, respectively. Moreover, in the assay with male ICR mice [1], the “effect on episodic short-term memory (DI vs amnesic group)” value is reported as “substantially improved episodic short-term memory”. Moreover, the entries for the “locomotor activity, number of arm entries” value in the assay with male ICR mice [3] (5 μmol/kg i.p.) and in the assay with male ICR mice [3] (50 μmol/kg i.p.) were 31.8 ± 2.1 entries and 34 ± 2.3 entries, respectively. Besides, the “Percentage of unfamiliar arm exploration” value in the assay with male ICR mice [2] (25 μmol/kg i.p., scopolamine-treated mice, mean ± SE) came out at 37.83 ± 0.7%; with male ICR mice [2] (100 μmol/kg i.p., scopolamine-treated mice, mean ± SE), 48.30 ± 5.4%. Moreover, the IC50 in assay [4] is 9.2 ± 2.3 µM. Besides, in assay [5], the “Mode of Inhibition” value is reported as “Competitive”. In addition, the Ki in assay [5] worked out at 2.08 ± 0.36 µM. For the same compound, the “Parameter α” value in assay [5] is listed as 21.84. In assay [6] (100 μM compound), this compound came in with an inhibition at 100 µM of 61.3%.
For `Cc1ccc(/C=C2N=C(/C=C/c3ccccc3)OC\2=O)cc1` [Oxazolone 2, 4-((Z)-4-methylbenzylidene)-2-((E)-styryl)oxazol-5(4H)-one], the IC50 in assay [4] is 95.5 ± 1.47 µM. Further, in assay [5], the “Mode of Inhibition” value was “Competitive”, the Ki turned out to be 108 ± 7.77 µM and the “Parameter α” value was 4.98.
For `O=C1OC(/C=C/c2ccccc2)=NC/1=C\c1ccc(Cl)cc1` [Oxazolone 3, 4-((Z)-4-chlorobenzylidene)-2-((E)-styryl)oxazol-5(4H)-one], the IC50 in assay [4] is 89.3 ± 22.3 µM. Moreover, in assay [5], the “Mode of Inhibition” value is on record as “Competitive”, the Ki stood at 98.4 ± 24 µM and the “Parameter α” value is on record as >1000. For the same compound, the “Inhibition (%) of hAChE” value in assay [6] (100 μM compound) was “inactive”. For the same compound, in assay [6] (300 μM compound), the “Inhibition (%) of hAChE” value is “moderate inhibitory activity”.
In the case of `COc1ccc(/C=C2N=C(/C=C/c3ccccc3)OC\2=O)cc1` [Oxazolone 4, 4-((Z)-4-methoxybenzylidene)-2-((E)-styryl)oxazol-5(4H)-one], in assay [4], the IC50 was 137 ± 34.2 µM. Besides, in assay [5], the “Mode of Inhibition” value is “Competitive”, the Ki is 157 ± 46 µM and the “Parameter α” value was 4.16. The compound also returned an inhibition at 100 µM in assay [6] (100 μM compound) of 49%.
`CC(=O)Oc1cccc(/C=C2N=C(/C=C/c3ccccc3)OC\2=O)c1` [Oxazolone 5, 3-((Z)-(5-oxo-2-((E)-styryl)oxazol-4(5H)-ylidene)methyl)phenyl acetate]: in assay [4], the IC50 was 204 ± 39.7 µM. In addition, in assay [5], the “Mode of Inhibition” value was “Non-competitive”, the Ki worked out at 183 ± 46 µM and the “Parameter α” value amounted to 1.
For the compound `CC(=O)Oc1ccc(/C=C2N=C(/C=C/c3ccccc3)OC\2=O)cc1` [Oxazolone 6, 4-((Z)-(5-oxo-2-((E)-styryl)oxazol-4(5H)-ylidene)methyl)phenyl acetate], the IC50 in assay [4] was 246 ± 51.2 µM. In assay [5], the “Mode of Inhibition” value is reported as “uncompetitive”, the “decrease in inhibition potency compared to (1)” value is recorded as “approximately 100 fold”, the Ki came out at 198 ± 49.5 µM and the “Parameter α” value is on record as 0.006.
For `CC(=O)Oc1cccc(/C=C2N=C(/C=C/c3ccccc3)OC\2=O)c1O` [Oxazolone 7, 2-hydroxy-3-((Z)-(5-oxo-2-((E)-styryl)oxazol-4(5H)-ylidene)methyl)phenyl acetate] the same measures were 37.1 ± 1.61 µM, “Competitive”, “roughly 33 fold”, 67 ± 19 µM and 18.27.
In the case of `CN1[C@@H]2C[C@@H](OC(=O)[C@H](CO)c3ccccc3)C[C@H]1[C@@H]1O[C@@H]12` [scopolamine, reference compound], the “Percentage of unfamiliar arm exploration” value in the assay on male ICR mice [2] (scopolamine group, 1 mg/kg i.p. 30 min before) came to 28.58 ± 5%.

The term IC50 denotes the concentration at which inhibition is half-maximal. A word on the Ki: it is the equilibrium dissociation constant of an inhibitor or competing ligand from its target. What is called inhibition is the share of the control response that was lost under treatment. A higher inhibition goes with a response far below the control.
